The values that follow come from US5776940A, “Phenylxanthine derivatives” (Glaxo Wellcome Inc., priority 1994, dated 1998).

Structures are written as SMILES.

The target in test [1] is T1, arachidonate 5-lipoxygenase (Rattus norvegicus, UniProt P12527).
T1 construct: endogenous in cells; host or cells: pleural exudate cells of male Harlan Sprague-Dawley rats, 3 hr after intrapleural carrageenan
T1 sequence (P12527 1-673): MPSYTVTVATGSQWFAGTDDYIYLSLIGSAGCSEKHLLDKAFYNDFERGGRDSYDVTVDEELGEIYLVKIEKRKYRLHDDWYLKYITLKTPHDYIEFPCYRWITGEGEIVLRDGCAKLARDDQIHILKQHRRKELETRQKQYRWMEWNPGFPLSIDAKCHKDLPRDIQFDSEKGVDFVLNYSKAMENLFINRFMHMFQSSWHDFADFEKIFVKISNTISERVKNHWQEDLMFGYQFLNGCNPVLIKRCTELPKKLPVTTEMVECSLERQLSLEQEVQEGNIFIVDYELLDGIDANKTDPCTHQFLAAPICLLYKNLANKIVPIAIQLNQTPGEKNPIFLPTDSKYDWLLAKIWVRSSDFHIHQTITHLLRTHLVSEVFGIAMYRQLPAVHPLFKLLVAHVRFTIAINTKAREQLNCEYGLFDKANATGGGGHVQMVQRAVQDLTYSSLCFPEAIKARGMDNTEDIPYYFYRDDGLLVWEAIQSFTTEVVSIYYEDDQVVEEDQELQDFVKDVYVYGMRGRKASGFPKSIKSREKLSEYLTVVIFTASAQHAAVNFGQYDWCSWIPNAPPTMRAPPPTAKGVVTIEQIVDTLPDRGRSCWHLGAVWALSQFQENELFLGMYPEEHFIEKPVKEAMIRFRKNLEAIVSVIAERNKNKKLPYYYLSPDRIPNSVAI
The test is described as follows: Arachidonate metabolism: 5-lipoxygenase inhibition in rat pleural exudate cells. It counts as cell-based, rat (Harlan Sprague-Dawley male). To be noted: ionophore A23187, 10 μM arachidonate, 37° C., read-out: Enzymes IC50 5-LO. How it is done:
(§1) Compounds of the invention were assayed for inhibiting activity in arachidonate metabolism and PAF synthesis as follows.
(§2) A) Arachidonate Metabolism
(§3) Arachidonate cyclooxygenase, 5-lipoxygenase, and thromboxane synthetase were assayed as described in White et al, Prostaglandins, Leukotrienes and Medicine, 1985; 20: p 1-9. Pleural exudate cells were harvested from Harlan Sprague-Dawley male rats (150±20 g) 3 hr after intrapleural injection of 0.5 mg carrageenan. Cell counts were obtained from pooled exudates, which were then centrifuged at 200 g (10 min, 4° C.) and resuspended at 15 million cells/ml in 0.13M NaCl, 15 mM Tris-Cl, 5 mM glucose, pH 7.4. Portions of this cell suspension (3 million cells per assay) were preincubated with and without compound being tested for 5 min at 37° C. in 50 mM Tris-Cl, 1 mM CaCl2, pH 7.4. Ionophore A23187 (3 μM) and [^14 C]arachidonate (to give 10 μM; 55 Ci/mol) were then added in a total assay volume of 400 μl, and incubation was continued for 2 min at 37° C. Blank assays were performed using sonicated cells with 0.1 mM 3-amino-1-m-trifluoromethylphenyl pyrazol-2-ine, an inhibitor of cyclooxygenase and lipoxygenase pathways. After incubation, reaction mixtures were acidified with 20 μl of 2N HCl and extracted with 4 ml diethyl ether. Ether extracts were dried under nitrogen, resuspended in ethyl acetate, and chromatographed on Whatman LK5D silica gel G plates, using ethyl acetate/isooctane/acetic acid/water (9/5/2/10; vols; top layer after 5 min shaking). Thin layer plates were exposed to Kodak SB-5 X-ray film to produce autoradiogran. [^14 C]DPM in products were obtained by scraping appropriate regions of TLC plates and counting in a scintillation spectrometer. Effects on the 5-lipoxygenase pathway were estimated by counting 5-HETE and 5,12-diHETE (LTB4). Cyclooxygenase and thromboxane synthetase inhibition were estimated by counting thromboxane B2 and prostaglandin E2 or F2 α. Selective thromboxane inhibitors will decrease thromboxane B2 and increase PGE2 and PGF2 α. Cyclooxygenase inhibitors will inhibit the formation of all three products.

Test [2] concerns arachidonate cyclooxygenase. The test is described as follows: Arachidonate metabolism: cyclooxygenase inhibition in rat pleural exudate cells. It counts as cell-based, rat (Harlan Sprague-Dawley male). The settings on record: ionophore A23187, 10 μM arachidonate, 37° C., read-out: Enzymes IC50 CO. The procedure: as §1, §2, §3
In test [3] the test system is C. parvum/LPS septic shock in mice. The test is described as follows: In vivo Septic Shock model C. parvum/LPS Shock. To be noted: for % Survival After 48 hr / Alive/Total at 3 hr / Alive/Total at 48 hr: schedule -2,0 hr. More on the design: species or system mouse (male CD-1). The procedure:
3) In vivo Septic Shock model C. parvum/LPS Shock
Male CD-1 mice, 25-30 g (Charles River: Raleigh, N.C.), are injected intravenously (i.v.) with 100 μg killed C. parvum (Coparvax; Burroughs Wellcome, RTP, NC). Nine or ten days later the mice are injected i.v. with 20 μg E. coli 026:B6 lipopolysaccharide (LPS; Difco Labs, Detroit, Mich.) in the presence of the analgesic butorphanol (150 μg per mouse). (E)-4-(1,3-bis(cyclohexylmethyl)-1, 2, 3, 6-tetrahydro-2, 6dioxo-9H-purin-8-yl)cinnamic acid was dissolved in ENCAPSIN (hydroxypropyl-β-cyclodextrin) for i.v. dosing before, at the same time as, and after the endotoxin. Control (untreated) animals go into shock within the first 90 min following LPS administration, and approximately 50% die within 3-5 hr. Mice are monitored for the first 7 hr and at 24 and 48 hr for survival.
(E)-4-(1,3-bis(cyclohexylmethyl)-1, 2, 3, 6-tetrahydro-2, 6-dioxo-9H-purin-8-yl) cinnamic acid was administered at 0.001 to 80 mg/kg i.v. in the Septic Shock model described above.

Regarding `O=C(O)/C=C/c1ccc(-c2nc3c(=O)n(CC4CCCCC4)c(=O)n(CC4CCCCC4)c3[nH]2)cc1` [Example 1, (E)-4-[1,3 Bis(cyclohexylmethyl)-1,2,3,6-tetrahydro-2,6-dioxo-9H-purin-8-yl]cinnamic Acid], the results for the IC50 in test [1] and in test [2] were 0.3 µM and 0.1 µM, respectively. Besides, the “% Survival After 48 hr” value in test [3] (0.001 mg/kg i.v.) amounted to 13%; in test [3] (0.01 mg/kg i.v.), 13%; in test [3] (0.1 mg/kg i.v.), 50%; in test [3] (1.0 mg/kg i.v.) it was 88%; in test [3] (5.0 mg/kg i.v.), 75%; in test [3] (10 mg/kg i.v.), 75%. Besides, the “% Survival After 48 hr” value in test [3] (20 mg/kg i.v.) came out at 75%; in test [3] (40 mg/kg i.v.) it was 75%; in test [3] (60 mg/kg i.v.) it was 75%; in test [3] (80 mg/kg i.v.) it was 63%. Moreover, the “Alive/Total at 3 hr” value was 6/8 in test [3] (0.001 mg/kg i.v.); 7/8 in test [3] (0.01 mg/kg i.v.); 6/8 in test [3] (0.1 mg/kg i.v.); 6/8 in test [3] (1.0 mg/kg i.v.); 7/8 in test [3] (5.0 mg/kg i.v.); 8/8 in test [3] (10 mg/kg i.v.). Moreover, the “Alive/Total at 3 hr” value in test [3] (20 mg/kg i.v.) was 8/8; in test [3] (40 mg/kg i.v.), 7/8; in test [3] (60 mg/kg i.v.), 7/8; in test [3] (80 mg/kg i.v.) it was 7/8. For the same molecule, the “Alive/Total at 48 hr” value in test [3] (0.001 mg/kg i.v.) is recorded as 1/8; in test [3] (0.01 mg/kg i.v.), 1/8; in test [3] (0.1 mg/kg i.v.), 4/8; in test [3] (1.0 mg/kg i.v.), 7/8; in test [3] (5.0 mg/kg i.v.), 6/8; in test [3] (10 mg/kg i.v.), 6/8. Also, the “Alive/Total at 48 hr” value is given as 6/8 in test [3] (20 mg/kg i.v.), 6/8 in test [3] (40 mg/kg i.v.), 6/8 in test [3] (60 mg/kg i.v.) and 5/8 in test [3] (80 mg/kg i.v.). Besides, the “protection (decreasing mortality)” value in test [3] (0.001 to 80 mg/kg i.v., administered 2 hr before and at the time of LPS) is recorded as “greater than 50%”.
Turning to `O=C(O)/C=C/c1ccc(-c2nc3c(=O)n(CC4CCCC4)c(=O)n(CC4CCCC4)c3[nH]2)cc1` [Example 4, (E)-4-[1,3 Bis(cyclopentylmethyl)-1,2,3,6-tetrahydro-2,6-dioxo-9H-purin-8-yl]cinnamicAcid], the IC50 was determined as 6 µM in test [1] and 5 µM in test [2].
The matching figures for `O=C(O)/C=C/c1ccc(-c2nc3c(=O)n(CC4CCCCCC4)c(=O)n(CC4CCCCCC4)c3[nH]2)cc1` [Example 7, (E)-4-[1,3 Bis(cycloheptylmethyl)-1,2,3,6-tetrahydro-2,6-dioxo-9H-purin-8-yl]cinnamicAcid]: 1.5 µM and 4 µM.
